This is an account of results in patent US9326961B2, “Diet and methods for improving learning capacity, mood and behavior in mammals” (COAPE, LTD, priority 2010, dated 2016).

In one series the test system is horse. The following applies: horses, cited from earlier work.
Another series concerns dogs (slow learners). In words: Discrimination learning, T-maze test (Test B) after three weeks on assigned diet. In kind it is in vivo, dog. The following applies: diet supplementation, compared with adding tryptophan to the diet. As to the method:
To determine the effect of diet on learning capability, 81 dogs of various ages, types and sex were recruited from dog training clubs and colleagues of the experimenter; however, one dog had to be withdrawn from the study. Inclusion into the study required that the dogs were not receiving any veterinary treatment or medication for behavioral problems. All dogs were in good health, having been fully vaccinated and wormed. Dogs were tested in simple tests that required no lengthy training time. […] Each dog's baseline learning capability was established on its performance in Test A. It was determined that 15 of the dogs were fast learners, while 65 were slow learners.
Each owner was supplied an information sheet advising how to introduce the new diet over a period of days, to ensure that no digestion problems occurred from a sudden change of food. The dogs remained on the assigned diet for a period of three weeks and their learning capability was re-evaluated according to their performance in Test B. Latency to learn the task was used as a measure of learning capability and specific displacement activities were monitored to evaluate the effect on various behavior patterns. […]
The dogs' latency to learn was measured in the time it took them, to achieve success, measured as 100% of correct responses in five consecutive trials. […]

As to `N[C@@H](Cc1c[nH]c2ccccc12)C(=O)O` [Tryptophan], the toxicity result with horse (high doses given orally, presumably toxic hindgut metabolite) was “may cause hemolytic anemia”. Also, the “effect on endurance capacity” value in the series with horse (high doses) is listed as “reduce endurance capacity”. For the same compound, in the series with horse (low doses), the behavioral effect result is “mild excitement”.
Turning to `CC(C)C[C@H](N)C(=O)O` [leucine], the “enhancing serotonin levels in the brain, as measured by improved behavior and learning ability” value in the series with dogs (slow learners) was “as effective in enhancing serotonin levels in the brain as adding tryptophan to the diet”.
